{"source": "patent US12097212B2", "about": "“Use of cationic steroidal antimicrobial compounds to deactivate coronavirus” (Brigham Young University, priority 2020, dated 2024)", "system": "SARS-CoV-2", "format": "cell-based", "settings": "30-minute contact time at 22 ± 2° C.; for Virus (CCID50/0.1 mL): average of 3 replicates ± standard deviation; for LRV (log reduction value): compared to the virus control", "note": "Where two headings read alike, the source gives them in different places. Marks after values point to notes of the source that are not given here."}
{"smiles": "CCCCCCCCOC(=O)CC[C@@H](C)[C@H]1CC[C@H]2[C@@H]3[C@H](OC(=O)CCN)C[C@@H]4C[C@H](OC(=O)CCN)CC[C@]4(C)[C@H]3C[C@H](OC(=O)CCN)[C@]12C", "note": "[CSA-44HC1]", "values": [{"measurement": "Virus (CCID50/0.1 mL)", "setting": "1 μg/mL", "value": "4.4 ± 0.12", "unit": "CCID50/0.1 mL"}, {"measurement": "LRV (log reduction value)", "setting": "1 μg/mL", "value": 0, "unit": "log10"}, {"measurement": "Virus (CCID50/0.1 mL)", "setting": "5 μg/mL", "value": "3.9 ± 0.17", "unit": "CCID50/0.1 mL"}, {"measurement": "LRV (log reduction value)", "setting": "5 μg/mL", "value": 0.5, "unit": "log10"}, {"measurement": "Virus (CCID50/0.1 mL)", "setting": "25 μg/mL", "value": "0.8 ± 0.19", "unit": "CCID50/0.1 mL"}, {"measurement": "LRV (log reduction value)", "setting": "25 μg/mL", "value": 3.6, "unit": "log10"}, {"measurement": "Virus (CCID50/0.1 mL)", "setting": "100 μg/mL", "value": "1.2 ± 0.94", "unit": "CCID50/0.1 mL"}, {"measurement": "LRV (log reduction value)", "setting": "100 μg/mL", "value": 3.2, "unit": "log10"}]}
{"smiles": "CCCCCCCCCCCCNCCC[C@@H](C)[C@H]1CC[C@H]2[C@@H]3[C@H](OCCCN)C[C@@H]4C[C@H](OCCCN)CC[C@]4(C)[C@H]3C[C@H](OCCCN)[C@]12C.Cl.Cl.Cl.Cl", "note": "[CSA-131HC1]", "values": [{"measurement": "Virus (CCID50/0.1 mL)", "setting": "1 μg/mL", "value": "4.1 ± 0.40", "unit": "CCID50/0.1 mL"}, {"measurement": "LRV (log reduction value)", "setting": "1 μg/mL", "value": 0.3, "unit": "log10"}, {"measurement": "Virus (CCID50/0.1 mL)", "setting": "5 μg/mL", "value": "4.1 ± 0.17", "unit": "CCID50/0.1 mL"}, {"measurement": "LRV (log reduction value)", "setting": "5 μg/mL", "value": 0.3, "unit": "log10"}, {"measurement": "Virus (CCID50/0.1 mL)", "setting": "25 μg/mL", "value": "1.2 ± 0.54", "unit": "CCID50/0.1 mL"}, {"measurement": "LRV (log reduction value)", "setting": "25 μg/mL", "value": 3.2, "unit": "log10"}, {"measurement": "Virus (CCID50/0.1 mL)", "setting": "100 μg/mL", "value": "<1.7**** CCID50/0.1 mL"}, {"measurement": "LRV (log reduction value)", "setting": "100 μg/mL", "value": ">2.7", "unit": "log10"}]}
{"smiles": "CCO", "note": "[Ethanol, reference compound]", "values": [{"measurement": "Virus (CCID50/0.1 mL)", "setting": "35%", "value": "0.8 ± 0.23", "unit": "CCID50/0.1 mL"}, {"measurement": "LRV (log reduction value)", "setting": "35%", "value": 3.6, "unit": "log10"}]}
